In PubChem BioAssay (NCI):
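Each compound was tested at five concentrations against cells in 96-well plates for 48 hours. At the GI50, growth is halved. Definition used: TGI = concentration required for complete inhibition of growth.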

What was measured:
Test in all cases: DTP human tumour cell line panel, 48 h
HCT-15 colon = system: HCT-15 colon
MOLT-4 leukemia = system: MOLT-4 leukemia
HCT-116 colon = system: HCT-116 colon
HOP-92 NSCLC = system: HOP-92 NSCLC
U251 CNS = system: U251 CNS
ACHN renal = system: ACHN renal
SF-295 CNS = system: SF-295 CNS
UACC-257 melanoma = system: UACC-257 melanoma
OVCAR-3 ovarian = system: OVCAR-3 ovarian
MDA-MB-468 breast = system: MDA-MB-468 breast
HOP-62 NSCLC = system: HOP-62 NSCLC
SK-OV-3 ovarian = system: SK-OV-3 ovarian
SF-268 CNS = system: SF-268 CNS
LOX IMVI melanoma = system: LOX IMVI melanoma
COLO 205 colon = system: COLO 205 colon
BT-549 breast = system: BT-549 breast
UO-31 renal = system: UO-31 renal
SR leukemia = system: SR leukemia
786-0 renal = system: 786-0 renal
SK-MEL-5 melanoma = system: SK-MEL-5 melanoma
NCI/ADR-RES ovarian = system: NCI/ADR-RES ovarian
T-47D breast = system: T-47D breast
SNB-75 CNS = system: SNB-75 CNS
SNB-19 CNS = system: SNB-19 CNS
MDA-MB-435 = system: MDA-MB-435
MDA-MB-231 breast = system: MDA-MB-231 breast
OVCAR-4 ovarian = system: OVCAR-4 ovarian
DU-145 prostate = system: DU-145 prostate
SK-MEL-28 melanoma = system: SK-MEL-28 melanoma
HS 578T breast = system: HS 578T breast
M14 melanoma = system: M14 melanoma
NCI-H460 lung = system: NCI-H460 lung
SK-MEL-2 melanoma = system: SK-MEL-2 melanoma
NCI-H23 lung = system: NCI-H23 lung
TK-10 renal = system: TK-10 renal
MCF7 breast = system: MCF7 breast
PC-3 prostate = system: PC-3 prostate
HL-60(TB) leukemia = system: HL-60(TB) leukemia
SW-620 colon = system: SW-620 colon
KM12 colon = system: KM12 colon
IGROV1 ovarian = system: IGROV1 ovarian
A498 renal = system: A498 renal
CAKI-1 renal = system: CAKI-1 renal
NCI-H522 lung = system: NCI-H522 lung
MALME-3M melanoma = system: MALME-3M melanoma
UACC-62 melanoma = system: UACC-62 melanoma
HT29 colon = system: HT29 colon
SF-539 CNS = system: SF-539 CNS
SN12C renal = system: SN12C renal
EKVX NSCLC = system: EKVX NSCLC
CCRF-CEM leukemia = system: CCRF-CEM leukemia
RXF 393 renal = system: RXF 393 renal
OVCAR-8 ovarian = system: OVCAR-8 ovarian
NCI-H226 lung = system: NCI-H226 lung
HCC-2998 colon = system: HCC-2998 colon
OVCAR-5 ovarian = system: OVCAR-5 ovarian
A549 NSCLC = system: A549 NSCLC

In the case of `COc1cc2c3c(n(CCCNC(C)C)c(=O)c2cc1OC)-c1nc2c(cc1C3=O)OCO2`, the GI50 (HCT-15 colon) is reported as 1.21 µM, the TGI (HCT-15 colon) is reported as 2.61 µM and the GI50 (MOLT-4 leukemia) is reported as 0.0457 µM. For the same compound, the TGI (MOLT-4 leukemia) was 2.13 µM, the GI50 (HCT-116 colon) was 1.04 µM and the TGI (HCT-116 colon) was 2.28 µM. It also gave a GI50 (HOP-92 NSCLC) of 10.6 µM, a TGI (HOP-92 NSCLC) of 24.9 µM and a GI50 (U251 CNS) of 0.588 µM. It also gave a TGI (U251 CNS) of 19.8 µM, a GI50 (ACHN renal) of 1.5 µM and a TGI (ACHN renal) of 13.2 µM. For the same compound, the GI50 (SF-295 CNS) was 0.348 µM, the TGI (SF-295 CNS) was 15 µM and the GI50 (UACC-257 melanoma) was 13.8 µM. The TGI (UACC-257 melanoma) was 29 µM, the GI50 (OVCAR-3 ovarian) was 14.3 µM and the TGI (OVCAR-3 ovarian) was 28.3 µM. The GI50 (MDA-MB-468 breast) was 0.492 µM, the TGI (MDA-MB-468 breast) was 6.08 µM and the GI50 (HOP-62 NSCLC) was 0.474 µM. For the same compound, the TGI (HOP-62 NSCLC) was 18.5 µM, the GI50 (SK-OV-3 ovarian) was 2.04 µM and the TGI (SK-OV-3 ovarian) was 19.2 µM. For the same compound, the GI50 (SF-268 CNS) was 1.17 µM, the TGI (SF-268 CNS) was 23.4 µM and the GI50 (LOX IMVI melanoma) was 1.01 µM. It also gave a TGI (LOX IMVI melanoma) of 2.21 µM, a GI50 (COLO 205 colon) of 3.98 µM and a TGI (COLO 205 colon) of 23 µM. For the same compound, the GI50 (BT-549 breast) was 4.17 µM, the TGI (BT-549 breast) was 23.1 µM and the GI50 (UO-31 renal) was 5.86 µM. It also gave a TGI (UO-31 renal) of 20.4 µM, a GI50 (SR leukemia) of 0.359 µM and a TGI (SR leukemia) of 2.77 µM. For the same compound, the GI50 (786-0 renal) was 1.55 µM, the TGI (786-0 renal) was 2.98 µM and the GI50 (SK-MEL-5 melanoma) was 1.39 µM. The TGI (SK-MEL-5 melanoma) was 5.35 µM, the GI50 (NCI/ADR-RES ovarian) was 1.52 µM and the TGI (NCI/ADR-RES ovarian) was 3.25 µM. The GI50 (T-47D breast) was 4.76 µM, the TGI (T-47D breast) was 28.6 µM and the GI50 (SNB-75 CNS) was 0.825 µM. It also gave a TGI (SNB-75 CNS) of 12.4 µM, a GI50 (SNB-19 CNS) of 2 µM and a TGI (SNB-19 CNS) of 18.7 µM. The GI50 (MDA-MB-435) was 2.16 µM, the TGI (MDA-MB-435) was 10.9 µM and the GI50 (MDA-MB-231 breast) was 1.42 µM. It also gave a TGI (MDA-MB-231 breast) of 2.81 µM, a GI50 (OVCAR-4 ovarian) of 17.1 µM and a TGI (OVCAR-4 ovarian) of 39.9 µM. The GI50 (DU-145 prostate) was 1.05 µM, the TGI (DU-145 prostate) was 16.6 µM and the GI50 (SK-MEL-28 melanoma) was 4.94 µM. It also gave a TGI (SK-MEL-28 melanoma) of 18.2 µM, a GI50 (HS 578T breast) of 11.8 µM and a TGI (HS 578T breast) of 33 µM. It also gave a GI50 (M14 melanoma) of 3.42 µM, a TGI (M14 melanoma) of 18.1 µM and a GI50 (NCI-H460 lung) of 0.294 µM. The TGI (NCI-H460 lung) was 11.6 µM, the GI50 (SK-MEL-2 melanoma) was 21.1 µM and the TGI (SK-MEL-2 melanoma) was 40.6 µM. It also gave a GI50 (NCI-H23 lung) of 0.587 µM, a TGI (NCI-H23 lung) of 12.4 µM and a GI50 (TK-10 renal) of 19.6 µM. The TGI (TK-10 renal) was 35.4 µM, the GI50 (MCF7 breast) was 0.101 µM and the TGI (MCF7 breast) was 3.07 µM. The GI50 (PC-3 prostate) was 2.72 µM, the TGI (PC-3 prostate) was 21.9 µM and the GI50 (HL-60(TB) leukemia) was 3.77 µM. It also gave a TGI (HL-60(TB) leukemia) of 21.2 µM, a GI50 (SW-620 colon) of 0.724 µM and a TGI (SW-620 colon) of 21.3 µM. For the same compound, the GI50 (KM12 colon) was 12.8 µM, the TGI (KM12 colon) was 28.6 µM and the GI50 (IGROV1 ovarian) was 14.8 µM. The TGI (IGROV1 ovarian) was 30.7 µM, the GI50 (A498 renal) was 12.2 µM and the TGI (A498 renal) was 27 µM. For the same compound, the GI50 (CAKI-1 renal) was 2.43 µM, the TGI (CAKI-1 renal) was 19.2 µM and the GI50 (NCI-H522 lung) was 0.768 µM. The TGI (NCI-H522 lung) was 27.6 µM, the GI50 (MALME-3M melanoma) was 1.54 µM and the TGI (MALME-3M melanoma) was 3.01 µM. It also gave a GI50 (UACC-62 melanoma) of 9.84 µM, a TGI (UACC-62 melanoma) of 23.6 µM and a GI50 (HT29 colon) of 1.35 µM. For the same compound, the TGI (HT29 colon) was 22.7 µM, the GI50 (SF-539 CNS) was 1.52 µM and the TGI (SF-539 CNS) was 7.26 µM. For the same compound, the GI50 (SN12C renal) was 10.6 µM, the TGI (SN12C renal) was 23.5 µM and the GI50 (EKVX NSCLC) was 10.7 µM. It also gave a TGI (EKVX NSCLC) of 23.6 µM, a GI50 (CCRF-CEM leukemia) of 0.0437 µM and a TGI (CCRF-CEM leukemia) of 1.32 µM. The GI50 (RXF 393 renal) was 2.26 µM, the TGI (RXF 393 renal) was 14.7 µM and the GI50 (OVCAR-8 ovarian) was 5.28 µM. The TGI (OVCAR-8 ovarian) was 24.9 µM, the GI50 (NCI-H226 lung) was 2.22 µM and the TGI (NCI-H226 lung) was 13.3 µM. The GI50 (HCC-2998 colon) was 9.38 µM, the TGI (HCC-2998 colon) was 21.5 µM and the GI50 (OVCAR-5 ovarian) was 13 µM. The TGI (OVCAR-5 ovarian) was 26.3 µM, the GI50 (A549 NSCLC) was 2.52 µM and the TGI (A549 NSCLC) was 24.2 µM.
